Like-named read-outs stand apart in the source and are kept apart here.
How the values were obtained:
[1] = Stability of the crystal form on stirring as suspension in solvent (40° C., 2 days); format: physicochemical; conditions: stirring in acetone at 40° C.
Description: 30 mg of the compound represented by formula (I) was weighed and added into a glass flask, 400 μL acetonitrile-water (1:1) was added to form a suspension. A sample of the suspension was placed on a magnetic stirrer (40° C.) for a dark stirring experiment. The sample of the suspension was centrifuged after stirring at 40° C. for 2 days, and then the residual sample was dried in a vacuum drying oven (30° C.) overnight to give a crystal form A of the compound represented by formula (I). The XRPD pattern of the crystal form A of the compound represented by formula (I) is shown in FIG. 1, the DSC pattern is shown in FIG. 2, and the TGA pattern is shown in FIG. 3.
30 mg of the compound represented by formula (I) was weighed and added into a glass flask, and 400 μL ethyl acetate was added to form a suspension. A sample of the suspension was placed on a magnetic stirrer (40° C.) for dark stirring experiment. The sample of the suspension was centrifuged after stirring at 40° C. for 2 days, and then the residual sample was dried in a vacuum drying oven (30° C.) overnight. The crystal form was detected by XRPD to give a crystal form A of the compound represented by formula (I).
30 mg of the compound represented by formula (I) was weighed and added into a glass flask, and 400 μL methanol was added to form a suspension. A sample of the suspension was placed on a magnetic stirrer (40° C.) for dark stirring experiment. The sample of the suspension was centrifuged after stirring at 40° C. for 2 days, and then the residual sample was dried in a vacuum drying oven (30° C.) overnight to give a crystal form B of the compound represented by formula (I). The XRPD pattern of the crystal form B of the compound represented by formula (I) is shown in FIG. 4, the DSC pattern is shown in FIG. 5, and the TGA pattern is shown in FIG. 6.
50 mg of the compound represented by formula (I) was weighed and added into a 1.5 mL liquid vial, and 200 μL methanol was added thereto, the obtained mixture was homogeneously mixed under ultrasound. The dissolved sample was quickly centrifuged, and the supernatant was placed in a centrifuge tube, the mouth of the tube was packed with a pierced aluminum foil, and then the tube was placed in a fume cupboard for volatilization; the sample of the suspension was placed on a magnetic stirring heater (40° C.) for stirring (in dark), and quickly centrifuged after 2 days. The resultant solid was collected and dried at 30° C. in a vacuum drying oven overnight to give the crystal form C of the compound represented by formula (I). The XRPD pattern of the crystal form C of the compound represented by formula (I) is shown in FIG. 7, the DSC pattern is shown in FIG. 8, and the TGA pattern is shown in FIG. 9.
50 mg of the compound represented by formula (I) was weighed and added into a 1.5 mL liquid vial, and 200 μL ethanol was added thereto, and the obtained mixture was homogeneously mixed under ultrasound. The dissolved sample was quickly centrifuged, the supernatant was placed into a centrifuge tube, and the mouth of the tube was packed with a pierced aluminum foil, and placed in a fume cupboard for volatilization; the sample of the suspension was placed on a magnetic stirring heater (40° C.) for stirring (in dark), and quickly centrifuged after 2 days. The solid obtained as above was collected and dried at 30° C. in a vacuum drying oven overnight to give a crystal form D of the compound represented by formula (I). The XRPD pattern of the crystal form D of the compound represented by formula (I) is shown in FIG. 10, the DSC pattern is shown in FIG. 11, and the TGA pattern is shown in FIG. 12.
35 mg of the compound represented by formula (II) was weighed and added into a 1.5 mL liquid vial, and 400 μL methanol was added thereto, and the obtained mixture was homogeneously mixed under ultrasound. […]

[2] = Solubility test in biological media (FaSSIF, FeSSIF, SGF) and water, 37° C.; format: physicochemical; conditions: for Status (24 h) / solubility at 24 h / pH 24 hours: 37° C.; for Status (24 h): about 4 mg in 2 mL; for solubility at 24 h: salt forms converted to salt concentrations, read-out: Solubility (mg/mL) 24 hours; for pH 24 hours: supernatant; for pH 0 hour: initial
Description: Step 1: Preparation of Control Solutions (0.2 mg/mL, calculated by free base)
2 mg the crystal form B of the compound represented by formula (I) (or 2.4 mg the crystal form E of the compound represented by formula (II)) as a control was precisely weighed and placed into a 40 mL glass vial, and a diluent (10 mL) was precisely added. The reaction solution was subjected to ultrasonic treatment for 20 min to sufficiently dissolve, then cooled to room temperature and shaked well. Two control solutions (STD #1, STD #2) were formulated in accordance with this method.
Step 2: Preparation of Linear Solutions
The control solution STD #1 of the crystal form B of the compound represented by formula (I) was 1×, 10×, 100×, 1000× and 2000× (free base LOQ) diluted, and designated as the linear solutions L1, L2, L3, L4 and L5; the control solution STD #1 of the crystal form E of the compound represented by formula (II) was 1×, 10×, 100× and 1000× (methanesulfonate LOQ) diluted, and designated as the linear solutions L1, L2, L3, L4.
Step 3: Solubility Test of the crystal form B of the compound represented by formula (I), the crystal form G of the compound represented by formula (III) and the crystal form E of the compound represented by formula (II) in biological media and water
4 samples (about 4 mg) of each of the crystal form B of the compound represented by formula (I), the crystal form E of the compound represented by formula (II), and the crystal form G of the compound represented by formula (III) were added into 12 glass vials (4 mL), respectively, and then 2 mL different biological media (FaSSIF, FeSSIF, SGF) and water were added into each compound respectively, then mixed homogeneously to form a suspension. The suspension was detected for its initial pH value. A magnet was added into the suspension, and placed on a magnetic stirring heater for stirring (at a temperature of 37° C., in dark). After stirring for 24 h, a sample was taken. The taken sample was quickly centrifuged, and the residual solid was detected by XRPD. The supernatant was detected for its pH value and diluted with a diluent into appropriate multiple, then measured with HPLC for its concentration.
FaSSIF: 1. 0.042 g sodium hydroxide, 0.3438 g sodium dihydrogen phosphate and 0.6186 g sodium chloride were weighed, added into 90 mL purified water, and homogeneously mixed, then, the mixture was adjusted with 1 N hydrochloric acid or 1 N sodium hydroxide to pH=6.5, and diluted into a constant volume of 100 mL with purified water; 2. 50 mL of the buffer described above was taken, and 0.224 g commercially available powder (Biorelevant.com) of FaSSIF/FeSSIF/FaSSGF was added thereto, the mixture was stirred to dissolve, and diluted with purified water to a constant volume of 100 mL.
FeSSIF: 1. 0.404 g sodium hydroxide, 0.865 g glacial acetic acid, and 1.1874 g sodium chloride were weighed, added into 90 mL purified water, and homogeneously mixed, then, the mixture was adjusted with 1 N hydrochloric acid or 1 N sodium hydroxide to pH=5.0, and diluted with purified water to a constant volume of 100 mL, 2. 50 mL of the buffer described above was taken, and 1.12 g commercially available powder (Biorelevant.com) of FaSSIF/FeSSIF/FaSSGF was added thereto, the mixture was stirred to dissolve, and diluted with purified water to a constant volume of 100 mL.
FaSSGF (SGF): 1. 0.2 g sodium chloride was weighed, added into 90 mL purified water, and mixed homogeneously, the mixture was adjusted with 1 N hydrochloric acid to pH=1.8, and diluted with purified water to a constant volume of 100 mL, and stood at room temperature.

FGFR4 kinase = biological target: T1, FGFR4 kinase (Homo sapiens, UniProt P22455); assay: In vitro enzyme activity test, Z'-LYTE Assay, FGFR4 enzymatic reaction; format: biochemical; conditions: 150 μM ATP, room temperature 60 min
T1 construct: purchased Life technology
T1 sequence (P22455 22-802): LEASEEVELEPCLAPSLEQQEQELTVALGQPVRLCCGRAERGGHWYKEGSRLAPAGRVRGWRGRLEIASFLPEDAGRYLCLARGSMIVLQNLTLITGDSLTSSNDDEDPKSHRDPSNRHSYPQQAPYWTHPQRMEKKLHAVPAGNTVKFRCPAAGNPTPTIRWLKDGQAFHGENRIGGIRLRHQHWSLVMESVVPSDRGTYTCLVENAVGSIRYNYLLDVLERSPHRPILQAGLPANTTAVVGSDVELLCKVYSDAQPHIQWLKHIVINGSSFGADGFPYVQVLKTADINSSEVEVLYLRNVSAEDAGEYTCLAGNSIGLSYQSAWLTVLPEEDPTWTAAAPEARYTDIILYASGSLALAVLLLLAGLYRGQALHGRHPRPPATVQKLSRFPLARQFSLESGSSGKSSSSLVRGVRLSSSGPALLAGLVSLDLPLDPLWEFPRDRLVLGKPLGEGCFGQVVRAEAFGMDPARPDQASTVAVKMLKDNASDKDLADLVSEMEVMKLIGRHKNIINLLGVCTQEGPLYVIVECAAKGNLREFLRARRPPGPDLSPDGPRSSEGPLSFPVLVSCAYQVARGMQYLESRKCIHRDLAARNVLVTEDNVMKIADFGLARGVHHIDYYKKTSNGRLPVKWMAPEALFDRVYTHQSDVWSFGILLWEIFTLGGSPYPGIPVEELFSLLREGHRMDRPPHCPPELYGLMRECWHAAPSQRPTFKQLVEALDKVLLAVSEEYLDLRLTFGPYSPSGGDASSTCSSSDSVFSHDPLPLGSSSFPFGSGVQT
Description: (§1) The enzyme activity was detected by Z′-LYTE® Assay with IC50 value of the compound used as an index for evaluating the inhibitory effect of the compound on FGFR4 kinases. The activity test was completed in Life technology.
(§2) The test compound was subjected to 3× gradient dilution, and the final concentrations included 10 concentrations from 10 μM to 0.5 nM, with two duplicates per concentration; the content of DMSO used in the detection reaction was 1%.
[…] The detection plate was Bar-coded Corning, low volume NBS, black 384-well plate, the reaction was implemented at room temperature for 60 min, and the reaction system was 10 μL.
(§3) 5 μL Development reagent B (1:64) was added into the kinase reaction solution to stop the reaction, and the reaction solution was incubated at 23° C. for 60 min, the plate was read with Envision instrument.
(§4) The data were converted to the phosphorylation rate and the inhibitory rate, and was subjected to curve fitting with Model 205 in XLFIT (iDBS) to give the IC50 data of the compound. If the bottom of the curve was not in the range of −20% to 20%, it was set as 0%; and if the top of the curve was not in the range of 70% to 130%, it was set as 100%.

FGFR1 protein kinase = biological target: T2, FGFR1 protein kinase (Homo sapiens, UniProt P11362); assay: In vitro enzyme activity test, Z'-LYTE Assay, FGFR1 enzymatic reaction; format: biochemical; conditions: 25 uM ATP, room temperature 60 min
T2 construct: purchased Life technology
T2 sequence (P11362 22-822): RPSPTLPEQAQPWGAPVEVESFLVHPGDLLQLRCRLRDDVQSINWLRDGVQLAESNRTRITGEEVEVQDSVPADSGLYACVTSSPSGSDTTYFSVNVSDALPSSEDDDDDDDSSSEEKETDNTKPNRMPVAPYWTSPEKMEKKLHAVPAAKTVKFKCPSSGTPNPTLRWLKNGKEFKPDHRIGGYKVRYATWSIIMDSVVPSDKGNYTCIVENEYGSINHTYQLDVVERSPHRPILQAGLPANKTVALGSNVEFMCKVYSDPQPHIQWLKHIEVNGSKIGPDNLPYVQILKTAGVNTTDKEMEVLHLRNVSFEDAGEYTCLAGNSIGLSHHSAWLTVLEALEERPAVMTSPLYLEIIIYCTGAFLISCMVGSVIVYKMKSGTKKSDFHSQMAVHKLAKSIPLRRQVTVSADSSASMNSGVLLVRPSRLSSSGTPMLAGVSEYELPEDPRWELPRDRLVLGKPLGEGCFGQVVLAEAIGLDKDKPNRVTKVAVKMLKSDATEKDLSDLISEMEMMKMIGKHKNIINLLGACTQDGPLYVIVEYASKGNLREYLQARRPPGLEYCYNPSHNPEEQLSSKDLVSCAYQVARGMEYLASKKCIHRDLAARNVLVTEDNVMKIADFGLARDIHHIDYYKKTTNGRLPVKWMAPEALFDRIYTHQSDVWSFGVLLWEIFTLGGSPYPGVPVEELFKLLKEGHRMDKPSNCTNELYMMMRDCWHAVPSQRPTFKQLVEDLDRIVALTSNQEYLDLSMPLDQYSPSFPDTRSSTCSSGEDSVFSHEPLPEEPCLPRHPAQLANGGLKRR
Description: as §1, §2
1 nM FGFR1 protein kinase, 2 μM Tyr4 peptide, 25 uM ATP, 50 mM HEPES (pH 7.5), 10 mM MgCl2, 1 mM EGTA, 0.01% BRIJ-35, 2 mM MnCl2, and 1 mM DTT. The detection plate was Black Proxiplate 384-Plus plate (PerkinElmer), the reaction was implemented at room temperature for 60 min, and the reaction system was 10 μL.
as §3, §4

| Compound | stability in the acetone solution [1] | Status (24 h) ([2]; FaSSIF) | solubility in three types of biological media, conclusion in words ([2]; FaSSIF, FeSSIF, SGF) | Status (24 h) ([2]; FeSSIF) | solubility at 24 h ([2]; SGF (FaSSGF), pH 1.8, simulated gastric fluid, thermodynamic from solid, SGF) [mg/mL] | Status (24 h) ([2]; SGF) | Status (24 h) ([2]; Water) | solubility at 24 h ([2]; pH 5, thermodynamic from solid, FeSSIF) [mg/mL] | solubility at 24 h ([2]; pH 6.5, thermodynamic from solid, FaSSIF) [mg/mL] | pH 24 hours ([2]; FaSSIF) | pH 24 hours ([2]; FeSSIF) | pH 24 hours ([2]; SGF) | pH 24 hours ([2]; Water) | pH 0 hour ([2]; suspension in FaSSIF) | pH 0 hour ([2]; suspension in FeSSIF) | pH 0 hour ([2]; suspension in SGF) | pH 0 hour ([2]; suspension in Water) | solubility at 24 h ([2]; thermodynamic from solid, Water) [mg/mL] | IC50 (FGFR4 kinase) [nM] | IC50 (FGFR1 protein kinase) [nM] |
| --- | --- | --- | --- | --- | --- | --- | --- | --- | --- | --- | --- | --- | --- | --- | --- | --- | --- | --- | --- | --- |
| C=CC(=O)N[C@H]1COC[C@H]1Nc1ncc(/C=C(\F)c2c(Cl)c(OC)cc(OC)c2Cl)cn1.O=S(=O)(O)O | substantially high stability | Suspension | good solubility | Suspension | 0.045 | Suspension | Suspension | 0.668 | 0.079 | 6.38 | 4.99 | 2.14 | 2.47 | 6.54 | 4.87 | 2.03 | 2.34 | 0.028 | – | – |
| C=CC(=O)N[C@H]1COC[C@H]1Nc1ncc(/C=C(\F)c2c(Cl)c(OC)cc(OC)c2Cl)cn1 [Compound represented by formula (I)] | – | – | – | – | – | – | – | – | – | – | – | – | – | – | – | – | – | – | 17 | 1460 |

Source: patent publication US11440903B2, “Salt form and crystal form of compound as FGFR4 inhibitor and preparation method thereof” (GUANGDONG ZHONGSHENG PHARMACEUTICAL CO., LTD, priority 2017, dated 2022)
